According to patent US20070249678A1, “SYNTHESIS AND USES OF PYROGLUTAMIC ACID DERIVATIVES” (Prodimed, S.A., priority 2006, published 2007):
“Also recorded” adds a separate entry of the source.

Test system: Renca cells (renal cell carcinoma)
Experiment: Effect of the isomers on in vivo tumour growth in mice challenged with Renca cells
Details: for Tumour surface, overall values (Mean) / Tumour surface, overall values (Median) / Tumour volume, overall values (Mean) / Tumour volume, overall values (Median): 260 ng/mouse i.p. on days 6, 7 and 14, s.c. Renca in Balb/c mice; for Inhibitory effect on in vivo Renca tumour growth (conclusion in words): 260 ng i.p. on days 6, 7 and 14, Balb/c mice
Source text: This assay was made in order to check the effect of each stereoisomer on in vivo tumour growth in mice challenged with Renca cells. Their effect was compared with placebo. The stereoisomers assayed were: • Isomer 1: 3R,5S-1-(3-Amino-5-carboxy-2-oxopyrrolidin-3-ylmethyl)pyridinium bromide hidrobromide (9b) • Isomer 2: 3R,5R-1-(3-Amino-5-carboxy-2-oxopyrrolidin-3-ylmethyl)pyridinium bromide hidrobromide (9c) • Isomer 3: 3S,5S-1-(3-Amino-5-carboxy-2-oxopyrrolidin-3-ylmethyl)pyridinium bromide hidrobromide (9a) • Isomer 4: 3 S,5R-1-(3-Amino-5-carboxy-2-oxopyrrolidin-3-ylmethyl)pyridinium bromide hidrobromide (9d)
Renca is a renal cell carcinoma originated in Balb/c mouse strain, and therefore syngeneic in mice with Balb/c genetic background [Melder R J et al., Cancer Immunol. Immunother., 2005, 54:535-547; Felluga B et al., 1969, J. Natl. Cancer Inst. 43:319-333]. Renca is considered a moderate immunogenic tumour and used as suitable model for testing immunointervention approaches [Salup R R, et al., 1992, The Journal of Urology, 147:1120-1123].
Renca cells (CLS, Eppelheim, Germany) were maintained in vitro by serial passages every 3-4 days. Cultures were performed with RPMI medium medium (RPMI, 10% foetal calf serum, 2 mM L-glutamine, non essential amino acids, 1 mM sodium pyruvate, 20 mM HEPES, 80 μg/mL gentamycin; all of them were purchased from Sigma, St. Louis, Mo., USA) by seeding 5×10^6 cells onto 75 cm^2 culture flasks. Tumour cells collected from 48 hour cultures upon trypsinization (Sigma, St. Louis, Mo., USA) were used as source of Renca cells for the studies described below.
Each isomer was tested at the dose levels of 260 ng administered on days 6, 7 and 14 after tumour inoculation.
The treatments were given by intraperitoneal route. The volume inoculated was 0.2 mL/animal. This route was chosen because it is the one described in the original method [Perez S, et al., 2003, Clinical Cancer Research. 9:5776-5785].
Tumours were established by subcutaneous inoculation in the right hind flank. Mice (Balb/c) were inoculated with 0.2 mL containing 105 viable Renca cells. The day of subcutaneous inoculation will be considered Day 0 of the test.
Balb/c mice inoculated with Renca cells were distributed into 5 experimental groups:
Mice were observed daily and the tumour size recorded twice a week. This was carried out by measuring two perpendicular diameters (L/W) with a calliper. These measures were used to obtain both tumour surface and volume:
Tumour surface=L×W (mm^2)
Tumour volume=L×W^2×½(mm^3)
Results were expressed as single values and/or as the mean±SD or median from each experimental group.
A case-control study was performed with treated and control mice in order to determine whether differences between isomers and administration of placebo were present. The data obtained (tumoral surface and volume) were tested for Normal distribution within the groups—Kolmogorov Smimov test p<0,05—. […] The U-test of Mann Withney was chosen for being one of the better known non-parametrical tests, anyway, results for this test are equivalent both to those of Wilcoxon's sum of ranges and Kruskal-Wallis two-groups test.
Due to the high dispersion of data, outlayers (animals beyond percentile 25 or above percentile 75 for tumour surface at day 25) were excluded of the study.

[1] = day 11 after tumour inoculation
[2] = day 14 after tumour inoculation
[3] = day 18 after tumour inoculation
[4] = day 21 after tumour inoculation
[5] = day 25 after tumour inoculation

Row | Structure (SMILES) | Tumour surface, overall values (Mean) (day 0 after tumour inoculation) [mm^2] | Tumour surface, overall values (Median) (day 0 after tumour inoculation) [mm^2] | Tumour volume, overall values (Mean) (day 0 after tumour inoculation) [mm^3] | Tumour volume, overall values (Median) (day 0 after tumour inoculation) [mm^3] | Tumour surface, overall values (Mean) [1] [mm^2] | Tumour surface, overall values (Median) [1] [mm^2] | Tumour volume, overall values (Mean) [1] [mm^3] | Tumour volume, overall values (Median) [1] [mm^3] | Tumour surface, overall values (Mean) [2] [mm^2] | Tumour surface, overall values (Median) [2] [mm^2] | Tumour volume, overall values (Mean) [2] [mm^3] | Tumour volume, overall values (Median) [2] [mm^3] | Tumour surface, overall values (Mean) [3] [mm^2] | Tumour surface, overall values (Median) [3] [mm^2] | Tumour volume, overall values (Mean) [3] [mm^3] | Tumour volume, overall values (Median) [3] [mm^3] | Tumour surface, overall values (Mean) [4] [mm^2] | Tumour surface, overall values (Median) [4] [mm^2] | Tumour volume, overall values (Mean) [4] [mm^3] | Tumour volume, overall values (Median) [4] [mm^3] | further results
1 | Br.N[C@@]1(C[n+]2ccccc2)C[C@@H](C(=O)O)NC1=O.[Br-] (single isomer, unassigned; isomer 1) [isomer 1, 3R,5S-1-(3-Amino-5-carboxy-2-oxopyrrolidin-3-ylmethyl)pyridinium bromide hidrobromide] | 0 | 0 | 0 | 0 | 1.2 | 0 | 1.73 | 0 | 14.1 | 12.5 | 36.88 | 22.75 | 44.07 | 36 | 174.37 | 108 | 86.6 | 81 | 429.07 | 329.25 | Tumour surface, overall values (Mean) [5]: 149.97 mm^2; Tumour surface, overall values (Median) [5]: 160.5 mm^2; Tumour volume, overall values (Mean) [5]: 895.58 mm^3; Tumour volume, overall values (Median) [5]: 907.5 mm^3
2 | Br.N[C@@]1(C[n+]2ccccc2)C[C@H](C(=O)O)NC1=O.[Br-] (single isomer, unassigned; isomer 2) [isomer 2, 3R,5R-1-(3-Amino-5-carboxy-2-oxopyrrolidin-3-ylmethyl)pyridinium bromide hidrobromide] | 0 | 0 | 0 | 0 | 1.6 | 0 | 2.34 | 0 | 14.46 | 9 | 32.05 | 13.5 | 55.14 | 42 | 217.43 | 126 | 96.86 | 77 | 453.89 | 278.75 | Tumour surface, overall values (Mean) [5]: 156.53 mm^2; Tumour surface, overall values (Median) [5]: 140 mm^2; Tumour volume, overall values (Mean) [5]: 938.48 mm^3; Tumour volume, overall values (Median) [5]: 613.25 mm^3; Deaths of mice in treatment group (second week after tumour inoculation, 260 ng i.p., animals excluded): Two mice from isomer 2 group died for unknown causes
3 | Br.N[C@]1(C[n+]2ccccc2)C[C@@H](C(=O)O)NC1=O.[Br-] (single isomer, unassigned; isomer 3) [isomer 3, 3S,5S-1-(3-Amino-5-carboxy-2-oxopyrrolidin-3-ylmethyl)pyridinium bromide hidrobromide] | 0 | 0 | 0 | 0 | 0.3 | 0 | 0.28 | 0 | 7.5 | 4 | 14.55 | 4 | 31 | 18 | 101.4 | 36 | 64.57 | 45.5 | 278.15 | 148.75 | Inhibitory effect on in vivo Renca tumour growth (conclusion in words): inhibit the in vivo growth of the renal cell carcinoma (Renca); Tumour surface, overall values (Mean) [5]: 106.17 mm^2; Tumour surface, overall values (Median) [5]: 90 mm^2; Tumour volume, overall values (Mean) [5]: 557.18 mm^3; Tumour volume, overall values (Median) [5]: 405 mm^3; p of differences in Renca tumour growth rate vs. placebo (surface or volume), Mann-Whitney U test (days 18th and 25th of tumour development, 260 ng i.p.): < 0.05
4 | Br.N[C@]1(C[n+]2ccccc2)C[C@H](C(=O)O)NC1=O.[Br-] (single isomer, unassigned; isomer 4) [isomer 4, 3 S,5R-1-(3-Amino-5-carboxy-2-oxopyrrolidin-3-ylmethyl)pyridinium bromide hidrobromide] | 0 | 0 | 0 | 0 | 0 | 0 | 0 | 0 | 2.87 | 0 | 4.73 | 0 | 15.47 | 9 | 40.67 | 13.5 | 37.37 | 25 | 126.42 | 62.5 | Inhibitory effect on in vivo Renca tumour growth (conclusion in words): inhibit the in vivo growth of the renal cell carcinoma (Renca); also recorded: highest inhibitory effect on Renca tumour growth; p of differences in Renca tumour growth rate vs. placebo (surface or volume), Mann-Whitney U test (all days scored after the day 14th of tumour development, 260 ng i.p.): < 0.01; Tumour surface, overall values (Mean) [5]: 81.3 mm^2; Tumour surface, overall values (Median) [5]: 63.5 mm^2; Tumour volume, overall values (Mean) [5]: 372.82 mm^3; Tumour volume, overall values (Median) [5]: 238.25 mm^3
